Assay results taken from patent US20040209849A1, “Use of effectors of the central cholinergic nervous system for treatment of delirium” (priority 1998, published 2004).

System: non-anticholinergic delirium (lithium poisoning, severe hyperactive delirium)
Assay: Individual case: treatment of a non-anticholinergic (lithium poisoning) delirium with orally administered rivastigmine
Type: in vivo, human
Conditions: patient, after 48 hours of therapy at 2×1.5 mg
Description: Treatment of a non-anticholinergic delirium with an orally administered modern inhibitor of acetylcholine esterase, rivastigmine
A patient had suffered from manic-depressive disease. Until recently there were no mental disintegration phenomena. After a urinary tract infection with lithium therapy of the manic-depressive condition, lithium poisoning occurred with a severe hyperactive delirium which forced the patient to be admitted to a hospital on an in-patient ward. These lithium poisoning deliria generally subside completely only after 6-8 weeks. The patient was transferred to a private clinic after 4 days and was highly psychotic, urinated in the corner of the room, talked to the lamp on the night table, hallucinated strange individuals and dwarves in the room, repeatedly fled the ward, believed that the nursing personnel wanted to kill them, was extremely agitated in motor response and restless, fumbled around with the blanket and phone cord, fell asleep repeatedly during the day, but remained up all night. The patient cried and laughed in alternation, suddenly became afraid again and again and then laughed. All these symptoms were very unstable, highly varied, but the patient was not actually responsive on the admission date. On the Trzepacz scale of delirium (Psychiatry Research, 23, (1988), […]) a score of 29 (of a possible 32) corresponding to a severe delirium was reached. […]

CCN(C)C(=O)Oc1cccc([C@H](C)N(C)C)c1 [rivastigmine]
clinical state after therapy: the patient was oriented, no longer hallucinated | delirium score on the Trzepacz scale of delirium (score before therapy 29 (of a possible 32)): 8
